{"source": "patent US12312370B2", "about": "“Immunoproteasome inhibitors” (Principia Biopharma Inc., priority 2017, dated 2025)", "key": {"[1]": {"target": "immunoproteasome LMP7/B5i subunit (Homo sapiens, UniProt P28062)", "assay": "Caliper-based proteasome enzymatic activity assay, LMP7", "assay_type": "biochemical", "settings": "human recombinant immunoproteasome 0.3 nM, FAM-labeled peptide substrate 1 μM, rt 3 h; read-out: LMP7 subunit IC50"}, "[2]": {"target": "constitutive proteasome β5c unit (Homo sapiens, UniProt P28074)", "assay": "Caliper-based proteasome enzymatic activity assay, β5c", "assay_type": "biochemical", "settings": "human recombinant constitutive proteasome 0.3 nM, FAM-labeled peptide substrate 1 μM, rt 3 h; read-out: β5c subunit IC50"}, "[3]": {"target": "immunoproteasome LPM2/β1i subunit (Homo sapiens, UniProt P28065)", "assay": "Caliper-based proteasome enzymatic activity assay, LMP2", "assay_type": "biochemical", "settings": "human recombinant immunoproteasome 0.3 nM, FAM-labeled peptide substrate 1 μM, rt 2 h"}, "[4]": {"target": "T1, PBMC/LMP7 (Homo sapiens, UniProt P28062)", "assay": "Proteasome-Glo inhibition of proteasome activity in cells, PBMC/LMP7", "assay_type": "cell-based", "settings": "2 h incubation at 37° C.", "experimental": "(§1) The cell-based effects of a compound described herein on the immunoproteasome were determined by measuring inhibition of proteasome activity in cells using the Proteasome-Glo™ Cell-Based Reagent (Promega, Madison WI). The Proteasome-Glo™ assay contains a specific luminogenic proteasome substrate in a buffer optimized for cell permeabilization, proteasome activity, and luciferase activity. For the chymotrypsin-like activity (LMP7 and β5c), the peptide substrate is Suc-LLVY-aminoluciferin (Succinyl-leucine-leucine-valine-tyrosine-aminoluciferin). Cleavage of the substrate by proteasome results in luminescent signal which is proportional to the proteasome activity. The cell line THP-1 (a monocytic leukemia cell line enriched in immunoproteasome), the cell line HT-29 (a colorectal adenocarcinoma cell line enriched in constitutive proteasome), and primary human peripheral blood mononuclear cells (PBMC) were used to assess proteasome activity. Cells were seeded in a 96-well plate at 10,000 cells per well in RPMI 1640 high glucose medium with 10% fetal bovine scrum (FBS). Compound dilutions were added to cells starting at a concentration of 5 uM and decreasing in tripling dilutions. The final DMSO concentration was 1%. The concentration range was adjusted as needed for compounds of different potencies. The cells treated with compounds were incubated for 2 h at 37° C. in 5% CO2. At the end of the 2 hour incubation period, cells were transferred to white 384 well assay plates. 20 uL of Proteasome-Glo™ Reagent was added to each well and incubated for 10 minutes at rt. The plate was read in the Analyst HT instrument (Molecular Devices, Sunnyvale, CA) using luminescence mode. The percent inhibition of activity was plotted as a function of log compound concentration. The IC50 was then calculated for each compound using Prism software from GraphPad Software Inc. (San Diego, CA)."}, "[5]": {"target": "T2, HT29/B5c (Homo sapiens, UniProt P28074)", "assay": "Proteasome-Glo inhibition of proteasome activity in cells, HT29/B5c", "assay_type": "cell-based", "settings": "HT-29 cells, 2 h incubation at 37° C.", "experimental": "as §1"}, "[6]": {"system": "Th1/17 differentiation", "settings": "human; cited from earlier work"}, "[7]": {"system": "Th1/17 differentiation", "settings": "mouse; cited from earlier work"}, "[8]": {"system": "murine collagen-induced arthritis", "settings": "cited from earlier work"}, "[9]": {"system": "MRL/lpr lupus model", "settings": "cited from earlier work"}, "[10]": {"system": "murine DSS-induced colitis model", "settings": "cited from earlier work"}, "[11]": {"system": "Hashimoto's thyroiditis model", "settings": "autoantibody-driven Hashimoto's thyroiditis model; cited from earlier work"}, "[12]": {"target": "T3, PBMC/LMP2 (Homo sapiens, UniProt P28065)", "assay": "Proteasome-Glo inhibition of proteasome activity in cells, PBMC/LMP2", "assay_type": "cell-based", "settings": "2 h incubation at 37° C."}, "[13]": {"target": "T1, PBMC/LMP7", "assay": "Durability of binding in cells, wash-out assay, PBMC/LMP7", "assay_type": "cell-based", "settings": "2 h incubation, inhibitor washout", "experimental": "(§2) The durability of binding of proteasome inhibitors was assessed in cells using wash-out assays and the Proteasome-Glo™ Reagent kit. THP-1 cells. HT-29 cells, or PBMC were incubated with an 8-fold dilution series of inhibitor for 2 h. Following 2 h of incubation, cells were washed using 3 occasions of centrifugation followed by resuspension in culture medium. Following inhibitor washout, cells were returned to culture for either 30 minutes, 4 h, or 18 h. Cells were then transferred to white 384 plates, and 20 uL of Proteasome-Glo™ Reagent was added to each well for 10 minutes. Plates were then read on an Analyst HT plate reader using luminescence mode. The percent inhibition of activity was plotted as a function of log compound concentration. The IC50 was then calculated for each compound using Prism software from GraphPad."}, "[14]": {"target": "T2, HT29/B5c", "assay": "Durability of binding in cells, wash-out assay, HT29/B5c", "assay_type": "cell-based", "settings": "2 h incubation, inhibitor washout", "experimental": "as §2"}, "[15]": {"target": "T3, PBMC/LMP2", "assay": "Durability of binding in cells, wash-out assay, PBMC/LMP2", "assay_type": "cell-based", "settings": "2 h incubation, inhibitor washout", "experimental": "as §2"}, "[16]": {"system": "prostate PC-3 cell line", "settings": "PC-3 cell line in vitro; cited from earlier work"}, "[17]": {"system": "tumor growth", "settings": "in vivo; cited from earlier work"}, "[18]": {"system": "multiple myeloma cell lines and primary patient tumor cells", "settings": "including those resistant to conventional and novel prior therapies; cited from earlier work"}}, "note": "Read-outs that look alike come from different tables or passages of the source."}
{"smiles": "C=CC(=O)N(C)c1cccc(C[C@H](NC(=O)c2cc(Cl)ccc2Cl)C(=O)N[C@@H](Cc2ccccc2)B(O)O)c1", "note": "[Example 15, ((R)-1-((S)-2-(2,5-dichlorobenzamido)-3-(3-(N-methylacrylamido)phenyl)propanamido)-2-phenylethyl)boronic acid]", "values": [{"measurement": "IC50", "setting": "[1]", "value": 4.3, "unit": "nM"}, {"measurement": "IC50", "setting": "[2]", "value": 5, "unit": "nM"}, {"measurement": "IC50", "setting": "[3]", "value": 2.7, "unit": "nM"}, {"measurement": "IC50", "setting": "[4]", "value": 35, "unit": "nM"}, {"measurement": "IC50", "setting": "[5]", "value": 141, "unit": "nM"}]}
{"smiles": "COc1ccc(C[C@H](NC(=O)[C@H](C)NC(=O)CN2CCOCC2)C(=O)N[C@@H](Cc2ccccc2)C(=O)[C@@]2(C)CO2)cc1", "note": "[PR-957]", "values": [{"measurement": "Th1/17 differentiation", "setting": "[6]", "value": "potently block"}, {"measurement": "Th1/17 differentiation", "setting": "[7]", "value": "potently block"}, {"measurement": "disease activity", "setting": "[8]", "value": "significantly inhibit disease activity"}, {"measurement": "disease progression", "setting": "[9]", "value": "prevented disease progression"}, {"measurement": "plasma cell numbers and anti-dsDNA IgG levels", "setting": "[9]", "value": "reduced plasma cell numbers and anti-dsDNA IgG levels"}, {"measurement": "inflammation and tissue destruction", "setting": "[10]", "value": "reduced inflammation and tissue destruction"}, {"measurement": "efficacy", "setting": "[11]", "value": "efficacious"}]}
{"smiles": "CC(C)C=C(C#N)C(=O)N1CCC[C@@H]1COC[C@H](NC(=O)c1cc(Cl)ccc1Cl)C(=O)N[C@@H](Cc1ccccc1)B(O)O", "note": "[Example 14, ((R)-1-((S)-3-(((R)-1-(2-cyano-4-methylpent-2-enoyl)pyrrolidin-2-yl)methoxy)-2-(2,5-dichlorobenzamido)propanamido)-2-phenylethyl)boronic acid]", "values": [{"measurement": "IC50", "setting": "[1]", "value": 1.7, "unit": "nM"}, {"measurement": "IC50", "setting": "[2]", "value": 2.4, "unit": "nM"}, {"measurement": "IC50", "setting": "[3]", "value": 138, "unit": "nM"}, {"measurement": "IC50", "setting": "[4]", "value": 31, "unit": "nM"}, {"measurement": "IC50", "setting": "[5]", "value": 60, "unit": "nM"}, {"measurement": "IC50", "setting": "[12]", "value": 274, "unit": "nM"}, {"measurement": "IC50", "setting": "[13]; 30 min in culture", "value": 50, "unit": "nM"}, {"measurement": "IC50", "setting": "[13]; 4 hr in culture", "value": 93, "unit": "nM"}, {"measurement": "IC50", "setting": "[13]; 18 hr in culture", "value": 146, "unit": "nM"}, {"measurement": "IC50", "setting": "[14]; 30 min in culture", "value": 82, "unit": "nM"}, {"measurement": "IC50", "setting": "[14]; 4 hr in culture", "value": 87, "unit": "nM"}, {"measurement": "IC50", "setting": "[14]; 18 hr in culture", "value": 1850, "unit": "nM"}, {"measurement": "IC50", "setting": "[15]; 30 min in culture", "value": 27, "unit": "nM"}, {"measurement": "IC50", "setting": "[15]; 4 hr in culture", "value": 505, "unit": "nM"}, {"measurement": "IC50", "setting": "[15]; 18 hr in culture", "value": 2960, "unit": "nM"}]}
{"smiles": "CC(C)C=C(C#N)C(=O)N(C)c1cccc(C[C@H](NC(=O)c2cc(Cl)ccc2Cl)C(=O)N[C@@H](Cc2ccccc2)B(O)O)c1", "note": "[Example 20, ((R)-1-((S)-3-(3-(2-cyano-N,4-dimethylpent-2-enamido)phenyl)-2-(2,5-dichlorobenzamido)propanamido)-2-phenylethyl)boronic acid]", "values": [{"measurement": "IC50", "setting": "[1]", "value": 2.4, "unit": "nM"}, {"measurement": "IC50", "setting": "[2]", "value": 8.1, "unit": "nM"}, {"measurement": "IC50", "setting": "[3]", "value": 483, "unit": "nM"}, {"measurement": "IC50", "setting": "[4]", "value": 34, "unit": "nM"}, {"measurement": "IC50", "setting": "[12]", "value": 208, "unit": "nM"}]}
{"smiles": "CCCCCCC(=O)N[C@@H](C)C(=O)N[C@@H](CC(C)C)C(=O)[C@@]1(CO[Si](C)(C)C(C)(C)C)CO1", "note": "[UK-101]", "values": [{"measurement": "apoptosis", "setting": "[16]", "value": "induced apoptosis"}, {"measurement": "tumor growth", "setting": "[17]", "value": "significantly suppressed tumor growth"}]}
{"smiles": "CC(C)C=C(C#N)C(=O)N1CCC(CCCC(=O)N[C@@H](Cc2ccccc2)B(O)O)CC1", "note": "[Example 29, (R)-(1-(4-(1-(2-cyano-4-methylpent-2-enoyl)piperidin-4-yl)butanamido)-2-phenylethyl)boronic acid]", "values": [{"measurement": "IC50", "setting": "[1]", "value": 319, "unit": "nM"}, {"measurement": "IC50", "setting": "[2]", "value": 964, "unit": "nM"}, {"measurement": "IC50", "setting": "[3]", "value": "> 5000", "unit": "nM"}, {"measurement": "IC50", "setting": "[4]", "value": 307, "unit": "nM"}, {"measurement": "IC50", "setting": "[5]", "value": 3590, "unit": "nM"}]}
{"smiles": "CC1=C(C(=O)N[C@H](C)C(=O)N[C@@H](Cc2c[nH]c3ccccc23)C(=O)N[C@@H](Cc2ccccc2)C(=O)[C@@]2(C)CO2)Cc2ccccc21", "note": "[PR-924]", "values": [{"measurement": "growth of multiple myeloma cell lines and primary patient tumor cells", "setting": "[18]", "value": "inhibit growth"}]}
